Reference: PMC10302047, “Structure–Activity Relationship Studies of Indolglyoxyl-Polyamine Conjugates as Antimicrobials and Antibiotic Potentiators” (Pharmaceuticals, 2023)
In brackets after ≈: the same amount, converted by molar mass. Entries after “also recorded” stand apart in the source; their conditions may differ. Read-outs that look alike come from different tables or passages of the source. Marks after values point to notes of the source that are not given here.

Legend:
[1] = test system: C. albicans ATCC 90028; assay: Antifungal susceptibility (MIC), C. albicans; format: cell-based; conditions: Candida albicans, ATCC90028, mean (n = 2)
Method in brief: (§1)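 MICs against E. coli ATCC 25922 and P. aeruginosa ATCC 27853 followed previously reported protocols. MRSA ATCC 43300 and C. albicans ATCC 90028 were tested by CO-ADD under its standard protocols.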

[2] = test system: S. aureus ATCC 25923; assay: Antimicrobial susceptibility (MIC), S. aureus; format: cell-based, Staphylococcus aureus; conditions: Staphylococcus aureus, ATCC25923; S. aureus ATCC 25923; mean (n = 3)
[3] = test system: P. aeruginosa ATCC 27853; assay: Antibiotic potentiation (MIC of antibiotics in the presence of synergizing compounds), P. aeruginosa; format: cell-based, Pseudomonas aeruginosa; conditions: for Conc (µM) for Potentiation of doxycycline: concentration required to restore doxycycline activity at 2 µg/mL (4.5 µM) against P. aeruginosa ATCC 27853
[4] = test system: P. aeruginosa ATCC 27853; assay: Antimicrobial susceptibility (MIC), P. aeruginosa; format: cell-based; conditions: Pseudomonas aeruginosa, ATCC27853, mean (n = 3), read-out: MIC P. a
Method in brief: as §1

[5] = test system: MRSA ATCC 43300; assay: Antimicrobial susceptibility (MIC), MRSA; format: cell-based; conditions: Staphylococcus aureus; MRSA ATCC 43300; mean (n = 2); read-out: MIC MRSA
Method in brief: as §1

[6] = test system: E. coli ATCC 25922; assay: Antimicrobial susceptibility (MIC), E. coli; format: cell-based; conditions: Escherichia coli, ATCC25922, mean (n = 3)
Method in brief: as §1

[7] = Cytotoxicity assay HEK293; format: cell-based, human; conditions: human, HEK293 cells, mean (n = 2), read-out: Cyto. IC50 (concentration of compound at 50% cytotoxicity)
Method: (§2) Cytotoxicity assays were conducted according to previously reported protocols.

[8] = test system: HEK293 (human embryonic kidney cells); assay: Cytotoxicity assay HEK293; format: cell-based; conditions: mean (n = 2)
Method: as §2

[9] = test system: E. coli ATCC 25922; assay: Antibiotic potentiation, E. coli; format: cell-based, Escherichia coli; conditions: mean (n = 3)
Method: (§3) Antibiotic enhancing activities were determined according to previously reported protocols.

[10] = test system: human red blood cells; assay: Hemolytic assay; format: cell-based; conditions: mean (n = 2)
Method: Hemolysis assays were conducted according to previously reported protocols.

[11] = test system: Klebsiella pneumoniae ST258; assay: Antibiotic potentiation, K. pneumoniae; format: cell-based; conditions: mean (n = 3)
Method: as §3

[12] = test system: A. baumannii AYE; assay: Antibiotic potentiation, A. baumannii; format: cell-based, Acinetobacter baumannii; conditions: mean (n = 3)
Method: as §3

[13] = test system: C. albicans ATCC 90028; parameters: method as in Cadelis et al. [16]; conditions: ref Cadelis et al. [16]; cited from earlier work
[14] = test system: S. aureus ATCC 25923; conditions: cited from earlier work; for MIC S. a: S. aureus ATCC 25923, ref Cadelis et al. [16]
[15] = test system: P. aeruginosa ATCC 27853; parameters: method as in Cadelis et al. [16]; conditions: ref Cadelis et al. [16]; cited from earlier work
[16] = test system: E. coli ATCC 25922; parameters: method as in Cadelis et al. [16]; conditions: ref Cadelis et al. [16]; cited from earlier work
[17] = test system: P. aeruginosa ATCC 27853; conditions: cited from earlier work; for Conc (µM) for Potentiation of doxycycline: doxycycline at 2 µg/mL (4.5 µM), P. aeruginosa ATCC 27853, ref Cadelis et al. [16]
[18] = test system: HEK293 (human embryonic kidney cells); conditions: cited from earlier work
[19] = test system: rat skeletal myoblast cell line L6; parameters: method as in PMID 30975502; conditions: ref [15], read-out: IC50 cytotoxicity; cited from earlier work
[20] = test system: Cryptococcus neoformans; parameters: method as in PMID 30975502; conditions: fungus Cryptococcus neoformans; ref [15]; cited from earlier work
[21] = HEK293, ref Cadelis et al. [16], read-out: Cyto. IC50 (concentration of compound at 50% cytotoxicity)

MIC [1] [µM] | MIC [2] [µM] | MIC [4] [µM] | MIC [5] [µM] | MIC [6] [µM] | Structure (SMILES) | Conc (µM) for Potentiation of doxycycline [3] [µM] | IC50 [7] [µM] | Cyto. IC50 (concentration of compound at 50% cytotoxicity) [8] | Hem. HC10 (concentration of compound at 10% hemolytic activity) [10] | MIC C. a [13] | MIC S. a [14] | MIC P. a [15] | MIC E. c [16] | Conc (µM) for Potentiation of doxycycline [17] | IC50 [18, 21] [µM] | other results
> 38 | 14.8 | > 240 | ≤ 0.3 | 120 | Cc1cccc2c(C(=O)C(=O)NCCCNCCCCCCCNCCCNC(=O)C(=O)c3c[nH]c4c(C)cccc34)c[nH]c12.O=C(O)C(F)(F)F.O=C(O)C(F)(F)F [Compound 23b, N^1,N^7-Bis(3-(2-(7-methyl-1H-indol-3-yl)-2-oxoacetamido)propyl)heptane-1,7-diaminium 2,2,2-trifluoroacetate] | 240 | > 38 | non-cytotoxic; also recorded: no detectable cytotoxicity |  |  |  |  |  |  |  | 
> 38 | 7.5 | 240 | 19.1 | 240 | O=C(NCCCNCCCCCCNCCCNC(=O)C(=O)c1c[nH]c2c(F)cccc12)C(=O)c1c[nH]c2c(F)cccc12.O=C(O)C(F)(F)F.O=C(O)C(F)(F)F [Compound 21a, N^1,N^6-Bis(3-(2-(7-fluoro-1H-indol-3-yl)-2-oxoacetamido)propyl)hexane-1,6-diaminium 2,2,2-trifluoroacetate] |  | 12 |  | >38 ^e µM |  |  |  |  |  |  | Concentration (µM) for Potentiation of chloramphenicol ([9]; chloramphenicol 2 µg/mL): >200 µM; Concentration (µM) for Potentiation of doxycycline ([9]; doxycycline 2 µg/mL): 1.56 µM; Concentration (µM) for Potentiation of erythromycin ([9]; erythromycin 2 µg/mL): 200 µM; Concentration (µM) for Potentiation of nalidixic acid ([9]; nalidixic acid 2 µg/mL): 200 µM; Concentration (µM) for Potentiation of erythromycin ([3]; P. aeruginosa ATCC 27853, erythromycin 2 µg/mL, mean (n = 3)): 100 µM; Concentration (µM) for Potentiation of chloramphenicol ([11]; chloramphenicol 2 µg/mL): >200 µM; Concentration (µM) for Potentiation of doxycycline ([11]; doxycycline 2 µg/mL): 200 µM; Concentration (µM) for Potentiation of erythromycin ([11]; erythromycin 2 µg/mL): >200 µM; Concentration (µM) for Potentiation of nalidixic acid ([11]; nalidixic acid 2 µg/mL): >200 µM; Concentration (µM) for Potentiation of chloramphenicol ([12]; chloramphenicol 2 µg/mL): 200 µM; Concentration (µM) for Potentiation of doxycycline ([12]; doxycycline 2 µg/mL): 12.5 µM; Concentration (µM) for Potentiation of erythromycin ([12]; erythromycin 2 µg/mL): 100 µM; Concentration (µM) for Potentiation of nalidixic acid ([12]; nalidixic acid 2 µg/mL): 200 µM; Concentration (µM) for Potentiation, no antibiotic ([12]; no antibiotic): 100 µM
 |  |  | 4.32 (≈ 3.03 µg/mL) |  | O=C(NCCCNCCCCNCCCNC(=O)C(=O)c1c[nH]c2ccc(Br)cc12)C(=O)c1c[nH]c2ccc(Br)cc12 [Compound 3] |  |  |  | >34 µM | >34.4 ^h µM | 3.125 ^h µM | 50 ^h µM | 25 ^h µM | 3.125 ^b µM | 14 | 
> 37 | 29 | > 200 | > 37 | > 200 | COc1ccc2[nH]cc(C(=O)C(=O)NCCCNCCCCCCNCCCNC(=O)C(=O)c3c[nH]c4ccc(OC)cc34)c2c1.O=C(O)C(F)(F)F.O=C(O)C(F)(F)F [Compound 19a, N^1,N^6-Bis(3-(2-(5-methoxy-1H-indol-3-yl)-2-oxoacetamido)propyl)hexane-1,6-diaminium 2,2,2-trifluoroacetate] | 7.3 | > 37 | non-toxic |  |  |  |  |  |  |  | Concentration (µM) for Potentiation of chloramphenicol ([3]; P. aeruginosa ATCC 27853, chloramphenicol 2 µg/mL, mean (n = 3)): 58 µM; Concentration (µM) for Potentiation of minocycline ([3]; P. aeruginosa ATCC 27853, minocycline 2 µg/mL, mean (n = 3)): 14.5 µM; Concentration (µM) for Potentiation, no antibiotic ([3]; P. aeruginosa ATCC 27853, no antibiotic, mean (n = 3)): >200 µM
 |  |  | 19.8 (≈ 11.5 µg/mL) |  | O=C(NCCCNCCCCNCCCNC(=O)C(=O)c1c[nH]c2c(F)cccc12)C(=O)c1c[nH]c2c(F)cccc12 [Compound 6] |  |  |  | >40 µM | >39.6 ^h µM | 25 ^h µM | 200 ^h µM | 200 ^h µM | 3.125 ^b µM | 19 | 
 |  |  | 38.4 (≈ 23.2 µg/mL) |  | COc1cccc2c(C(=O)C(=O)NCCCNCCCCNCCCNC(=O)C(=O)c3c[nH]c4c(OC)cccc34)c[nH]c12 [Compound 7] |  |  |  | >38 µM | 38.4 ^h µM | 15 ^h µM | >200 ^h µM | >200 ^h µM | 3.75 ^b µM | 27 | 
> 37 | 7.3 | > 230 | ≤ 0.29 | 29 | Cc1cccc2c(C(=O)C(=O)NCCCNCCCCCCCCNCCCNC(=O)C(=O)c3c[nH]c4c(C)cccc34)c[nH]c12.O=C(O)C(F)(F)F.O=C(O)C(F)(F)F [Compound 23c, N^1,N^8-Bis(3-(2-(7-methyl-1H-indol-3-yl)-2-oxoacetamido)propyl)octane-1,8-diaminium 2,2,2-trifluoroacetate] | 230 | > 37 | non-cytotoxic; also recorded: no detectable cytotoxicity |  |  |  |  |  |  |  | 
 |  |  |  |  | O=C(NCCCNCCCCNCCCNC(=O)C(=O)c1c[nH]c2cc(Br)ccc12)C(=O)c1c[nH]c2cc(Br)ccc12 [Compound 1] |  |  |  |  |  |  |  |  |  |  | MIC ([14]; Staphylococcus aureus ATCC 25923, ref [15]): 6.25 µM (≈ 4.39 µg/mL); IC50 [19]: 7.7 µM; MIC [20]: 1.1 µM (≈ 0.773 µg/mL); antibiotic enhancement in combination with doxycycline ([17]; Pseudomonas aeruginosa, result in words, ref [15]): strong antibiotic enhancement effect; IC50 ([18]; human embryonic kidney cell line HEK293, ref [15], read-out: IC50 cytotoxicity): 5.1 µM
 |  |  | 20 (≈ 11.5 µg/mL) |  | Cc1cccc2c(C(=O)C(=O)NCCCNCCCCNCCCNC(=O)C(=O)c3c[nH]c4c(C)cccc34)c[nH]c12 [Compound 8] |  |  |  | >40 µM | >40.0 ^h µM | 25 ^h µM | >200 ^h µM | >200 ^h µM | 6.25 ^b µM | > 40 | 
